According to patent US10617654B2, “Use of fenoterol and fenoterol analogues in the treatment of glioblastomas and astrocytomas” (priority 2010, dated 2020):
“And” between values parts separate entries of the source, which are not always exact repeats. Identical values can stand only once. Like-named read-outs stand apart in the source and are kept apart here.

How the values were obtained:
[1] = Brain and plasma analysis of [3H]-(R,R)-methoxyfenoterol after IV administration; type: in vivo, male Sprague-Dawley rats; settings: rats, IV
Experimental: An overview of the research study design for evaluating the brain-to-plasma distribution of [^3H]
(specific activity 57 Ci/mmol); vehicle was sterile saline, 0.9% sodium chloride, USP. Dose formulations were prepared on the day of the study. The amount of radioactivity in the dose formulation was determined by liquid scintillation. The study lasted for an hour and radioactivity levels in plasma and brain tissue were evaluated at the conclusion of the study. Approximately 5 mls of whole blood was collected. Blood samples were collected via cardiac puncture, transferred into a tube containing K3EDTA as the anticoagulant and kept on wet ice until processed to plasma. To generate plasma, samples were centrifuged within 15 minutes of collection at 2,500 RPM for 15 minutes at room temperature. Plasma was divided equally into three labeled cryovials and stored on ample dry ice until transferred to a freezer set at ≤−20° C. for storage until analysis. Duplicate aliquots were weighed and then combined with scintillation cocktail. The [^3H] radioactivity was determined on a liquid scintillation counter. Brain samples were snap frozen in liquid nitrogen and stored at ≤−70° C. until analysis. Whole brain tissue was homogenized and the weight of the homogenate was determined. Duplicate aliquots from the homogenate were weighed, solubilized and then combined with scintillation cocktail. The [^3H] radioactivity was determined on a liquid scintillation counter.

1321N1 xenograft = 1321N1 xenograft implanted in the flank of SKID mice; type: in vivo; settings: IP twice a day; day 3-10 30 mg/kg/day, day 10-42 50 mg/kg/day
[2] = Experimental: Dose calculations (mg/kg) were based on the individual body weight measured on the day of treatment. Study duration for pharmacokinetic studies was 6 hours. […] Urine was collected for 0-6 hours and 6 to 24 hours from 3 rats in each treatment group.
In the two-compartment model, the drug distributes into two compartments, the central compartment and the tissue, or peripheral compartment. The central compartment represents the blood, extracellular fluid, and highly perfused tissues. The drug distributes rapidly and uniformly in the central compartment. A second compartment, known as the tissue or peripheral compartment, contains tissues in which the drug equilibrates more slowly. Drug transfer between the two compartments is assumed to take place by first-order processes.
The following abbreviations are utilized in Table 4 below: alpha—macro rate constant associated with the distribution phase; beta—macro rate constant associated with the elimination phase; A, B—zero time intercept associated with the alpha phase and beta phase, respectively; AUC—area under the curve; T1/2 (K10)—half-life associated with the rate constant K10; K10—elimination rate—rate at which the drug leaves the system from the central compartment; K12—rate at which drug enters tissue compartment from the central compartment; K21—rate at which drug enters central compartment from tissue compartment; V1—volume of distribution of the central compartment; V2—volume of distribution of the tissue compartment; Vss—volume of distribution at steady state; and Cl—clearance.

[3] = rats, 5 mg/kg intravenous, two-compartment open model

SMILES: COc1ccc(C[C@@H](C)NC[C@H](O)c2cc(O)cc(O)c2)cc1.O=C(O)/C=C/C(=O)O [(R,R)-2, (R,R)-(−)-1-p-Methoxyphenyl-2-(β-3′,5′-dihydroxy-phenyl-β-oxy)ethylamino-propane Fumarate]
- passage through the blood brain barrier [1]: capable of passing through the blood brain barrier
- growth of 1321N1 xenograft (1321N1 xenograft): inhibit growth
- Individual plasma concentration ([2]; individual rat, 5 mg/kg IV, 300 min, listed as (R,R)-methoxyfenoterol): 0.06 ug/ml and 0.07 ug/ml (3×) and 0.09 ug/ml
- systemic exposure (AUC) compared to (R,R)-fenoterol ([2]; rats, 5 mg/kg IV): significantly higher
- Plasma concentration, Average ([2]; rats, 5 mg/kg IV, 15 min): 580 ng/mL
- Plasma concentration, Average ([2]; rats, 5 mg/kg IV, 30 min): 410 ng/mL
- Plasma concentration, Average ([2]; rats, 5 mg/kg IV, 60 min): 260 ng/mL
- Plasma concentration, Average ([2]; rats, 5 mg/kg IV, 120 min): 170 ng/mL
- Plasma concentration, Average ([2]; rats, 5 mg/kg IV, 240 min): 120 ng/mL
- Plasma concentration, Average ([2]; rats, 5 mg/kg IV, 300 min): 70 ng/mL
- Plasma concentration, Average ([2]; rats, 5 mg/kg IV, 360 min): 60 ng/mL
- A (zero time intercept, alpha phase) [2, 3]: 4.6437 µg/mL
- AUC [2, 3]: 96.1011 µg·min/mL
- B (zero time intercept, beta phase) [2, 3]: 0.3900 µg/mL
